Data from patent US11596692B1 (Incyte Corporation, priority 2018, dated 2023).
Read-outs that look alike come from different tables or passages of the source.

Test system: IRF3
Test: IRF3 activation assay in THP-1 Dual cells
Type: cell-based
Conditions: Homo sapiens, read-out: THP1 IRF3 EC50
Summary of the method: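 THP-1 Dual cells (100,000/well) were treated with serially diluted compound for 24 h at 37° C, 5% CO2. IRF3 reporter activity in supernatant was read with QUANTI-Blue as absorbance at 620-655 nm after 2 h, with untreated cells as negative control. EC50 came from fitting percent control activity against log concentration.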

| SMILES | EC50 (THP-1, Table 4A) [nM] | EC50 (THP-1, Table 4B) [nM] | EC50 (THP-1, Table 4C) [nM] |
| --- | --- | --- | --- |
| CCn1nc(C)cc1C(=O)Nc1nc2cc(C(N)=O)c3ccoc3c2n1C/C=C/Cn1c2nc(-c3cc(C)nn3CC)ncc2c2cc(C(N)=O)cc(OCCCOC)c21 [Example S68, (E)-1-(4-(6-carbamoyl-2-(1-ethyl-3-methyl-1H-pyrazol-5-yl)-8-(3-methoxypropoxy)-9H-pyrimido[4,5-b]indol-9-yl)but-2-en-1-yl)-2-(1-ethyl-3-methyl-1H-pyrazole-5-carboxamido)-1H-benzofuro[6,7-d]imidazole-5-carboxamide] | ≤ 100 | – | – |
| CCn1nc(C)cc1C(=O)Nc1nc2cc(C(N)=O)cc(C)c2n1C/C=C/Cn1c2ccc(C(N)=O)cc2c2cc(C#N)c(-c3cc(C)nn3CC)nc21 [Example S25, (E)-9-(4-(5-carbamoyl-2-(1-ethyl-3-methyl-1H-pyrazole-5-carboxamido)-7-methyl-1H-benzo[d]imidazol-1-yl)but-2-en-1-yl)-3-cyano-2-(1-ethyl-3-methyl-1H-pyrazol-5-yl)-9H-pyrido[2,3-b]indole-6-carboxamide] | 100 to 500 | < 1000 | 200 to 500 |
| CCn1nc(C)cc1C(=O)Nc1nc2cc(C(N)=O)cc(C)c2n1C/C=C/Cn1c2ccc(C(N)=O)cc2c2cnc(-c3cc(C)nn3CC)c(C#N)c21 [Example S26, (E)-5-(4-(5-carbamoyl-2-(1-ethyl-3-methyl-1H-pyrazole-5-carboxamido)-7-methyl-1H-benzo[d]imidazol-1-yl)but-2-en-1-yl)-4-cyano-3-(1-ethyl-3-methyl-1H-pyrazol-5-yl)-5H-pyrido[4,3-b]indole-8-carboxamide] | 500 to 1000 | < 1000 | 500 to 1000 |
| CCn1nc(C)cc1C(=O)Nc1nc2cc(C(N)=O)cc(OC)c2n1C/C=C/Cn1c2ccc(C(N)=O)cc2c2cnc(-c3cc(C)nn3CC)nc21 [Example S4, (E)-9-(4-(5-carbamoyl-2-(1-ethyl-3-methyl-1H-pyrazole-5-carboxamido)-7-methoxy-1H-benzo[d]imidazol-1-yl)but-2-enyl)-2-(1-ethyl-3-methyl-1H-pyrazol-5-yl)-9H-pyrimido[4,5-d]indole-6-carboxamide] | 500 to 1000 | < 1000 | 500 to 1000 |
| CCn1nc(C)cc1C(=O)Nc1nc2cc(C(N)=O)cc(OCCCOC)c2n1C/C=C/Cn1c2nc(-c3cc(C)nn3CC)ncc2c2cc(C(N)=O)cc(OCCCOC(=O)NCCC(=O)O)c21 [Example S57, (E)-3-((3-(6-carbamoyl-9-(4-(5-carbamoyl-2-(1-ethyl-3-methyl-1H-pyrazole-5-carboxamido)-7-(3-methoxypropoxy)-1H-benzo[d]imidazol-1-yl)but-2-enyl)-2-(1-ethyl-3-methyl-1H-pyrazol-5-yl)-9H-pyrimido[4,5-b]indol-8-yloxy)propoxy)carbonylamino)propanoic acid] | – | – | 50 to 200 |
| CCn1nc(C)cc1C(=O)Nc1nc2cc(C(N)=O)cc(OCCCOC)c2n1C/C=C/Cn1c2nc(-c3cc(C)nn3CC)ncc2c2cc(C(N)=O)cc(OCCOCCOCCOCCC(=O)O)c21 [Example S59, (E)-3-(2-(2-(2-(6-carbamoyl-9-(4-(5-carbamoyl-2-(1-ethyl-3-methyl-1H-pyrazole-5-carboxamido)-7-(3-methoxypropoxy)-1H-benzo[d]imidazol-1-yl)but-2-enyl)-2-(1-ethyl-3-methyl-1H-pyrazol-5-yl)-9H-pyrimido[4,5-b]indol-8-yloxy)ethoxy)ethoxy)ethoxy)propanoic acid] | – | – | 50 to 200 |
| CCn1nc(C)cc1C(=O)Nc1nc2cc(C(N)=O)cc(OC)c2n1C/C=C/Cn1c(NC(=O)c2cc(C)nn2CC)nc2cc(C(N)=O)cc(OCCCNC(=O)CCN)c21 [Example S32, (E)-7-(3-(3-aminopropanamido)propoxy)-1-(4-(5-carbamoyl-2-(1-ethyl-3-methyl-1H-pyrazole-5-carboxamido)-7-methoxy-1H-benzo[d]imidazol-1-yl)but-2-en-1-yl)-2-(1-ethyl-3-methyl-1H-pyrazole-5-carboxamido)-1H-benzo [d]imidazole-5-carboxamide] | ≤ 100 | – | – |
| CCn1nc(C)cc1C(=O)Nc1nc2cc(C(N)=O)cc(C)c2n1C/C=C/Cn1c2ccc(C(N)=O)cc2c2cnc(-c3ccnn3CC)nc21 [Example S7, (E)-9-(4-(5-carbamoyl-2-(1-ethyl-3-methyl-1H-pyrazole-5-carboxamido)-7-methyl-1H-benzo[d]imidazol-1-yl)but-2-enyl)-2-(1-ethyl-1H-pyrazol-5-yl)-9H-pyrimido[4,5-b]indole-6-carboxamide] | 100 to 500 | < 1000 | 200 to 500 |
| CCn1nc(C)cc1C(=O)Nc1nc2cc(C(N)=O)cc(OC)c2n1C/C=C/Cn1c2nc(-c3cc(C)nn3CC)ncc2c2cc(C(N)=O)cc(OCCC3CCN(CCCC(=O)O)CC3)c21 [Example S60, (E)-4-(4-(2-(6-carbamoyl-9-(4-(5-carbamoyl-2-(1-ethyl-3-methyl-1H-pyrazole-5-carboxamido)-7-methoxy-1H-benzo[d]imidazol-1-yl)but-2-enyl)-2-(1-ethyl-3-methyl-1H-pyrazol-5-yl)-9H-pyrimido[4,5-b]indol-8-yloxy)ethyl)piperidin-1-yl)butanoic acid] | – | – | 50 to 200 |

The next lines start with the values.

| EC50 (THP-1, Table 4A) [nM] | EC50 (THP-1, Table 4B) [nM] | EC50 (THP-1, Table 4C) [nM] | SMILES |
| --- | --- | --- | --- |
| ≤ 100 | < 200 | ≤ 50 | CCn1nc(C)cc1C(=O)Nc1nc2cc(C(N)=O)cc(C)c2n1C/C=C/Cn1c2nc(-c3cc(C)nn3CC)ccc2c2cc(C(N)=O)cc(OC)c21 [Example S14, (E)-9-(4-(5-carbamoyl-2-(1-ethyl-3-methyl-1H-pyrazole-5-carboxamido)-7-methyl-1H-benzo[d]imidazol-1-yl)but-2-enyl)-2-(1-ethyl-3-methyl-1H-pyrazol-5-yl)-8-methoxy-9H-pyrido[2,3-b]indole-6-carboxamide] |
| – | – | ≤ 50 | CCn1nc(C)cc1C(=O)Nc1nc2cc(C(N)=O)cc(OCCCNS(=O)(=O)CCCC(=O)O)c2n1C/C=C/Cn1c2nc(-c3cc(C)nn3CC)ncc2c2cc(C(N)=O)cc(OCCCOC)c21 [Example S50, (E)-4-(N-(3-((5-carbamoyl-1-(4-(6-carbamoyl-2-(1-ethyl-3-methyl-1H-pyrazol-5-yl)-8-(3-methoxypropoxy)-9H-pyrimido[4,5-b]indol-9-yl)but-2-en-1-yl)-2-(1-ethyl-3-methyl-1H-pyrazole-5-carboxamido)-1H-benzo[d]imidazol-7-yl)oxy)propyl)sulfamoyl)butanoic acid] |
| – | – | ≤ 50 | CCn1nc(C)cc1C(=O)Nc1nc2cc(C(N)=O)cc(OCCCNC(=O)NCC(=O)O)c2n1C/C=C/Cn1c2nc(-c3cc(C)nn3CC)ncc2c2cc(C(N)=O)cc(OCCCOC)c21 [Example S46, (E)-((3-((5-carbamoyl-1-(4-(6-carbamoyl-2-(1-ethyl-3-methyl-1H-pyrazol-5-yl)-8-(3-methoxypropoxy)-9H-pyrimido[4,5-b]indol-9-yl)but-2-en-1-yl)-2-(1-ethyl-3-methyl-1H-pyrazole-5-carboxamido)-1H-benzo[d]imidazol-7-yl)oxy)propyl)carbamoyl)glycine] |
| – | – | ≤ 50 | CCn1nc(C)cc1C(=O)Nc1nc2cc(C(N)=O)cc(OCCCNC(=O)CCCC(=O)O)c2n1C/C=C/Cn1c2nc(-c3cc(C)nn3CC)ncc2c2cc(C(N)=O)cc(OCCCOC)c21 [Example S39, (E)-5-((3-((5-carbamoyl-1-(4-(6-carbamoyl-2-(1-ethyl-3-methyl-1H-pyrazol-5-yl)-8-(3-methoxypropoxy)-9H-pyrimido[4,5-b]indol-9-yl)but-2-en-1-yl)-2-(1-ethyl-3-methyl-1H-pyrazole-5-carboxamido)-1H-benzo[d]imidazol-7-yl)oxy)propyl)amino)-5-oxopentanoic acid] |
| ≤ 100 | < 200 | ≤ 50 | CCn1nc(C)cc1C(=O)Nc1nc2cc(C(N)=O)cc(OCCCN3CCOCC3)c2n1C/C=C/Cn1c2nc(-c3cc(C)nn3CC)ncc2c2cc(C(N)=O)cc(OCCCOC)c21 [Example S27, (E)-9-(4-(5-carbamoyl-2-(1-ethyl-3-methyl-1H-pyrazole-5-carboxamido)-7-(3-morpholinopropoxy)-1H-benzo [d]imidazol-1-yl)but-2-en-1-yl)-2-(1-ethyl-3-methyl-1H-pyrazol-5-yl)-8-(3-methoxypropoxy)-9H-pyrimido[4,5-b]indole-6-carboxamide] |
| ≤ 100 | < 200 | ≤ 50 | CCn1nc(C)cc1C(=O)Nc1nc2cc(C(N)=O)cc(OCCCOC(=O)c3cc(C)nn3CC)c2n1C/C=C/Cn1c2ccc(C(N)=O)cc2c2cnc(-c3cc(C)nn3CC)nc21 [Example S17, (E)-3-((5-carbamoyl-1-(4-(6-carbamoyl-2-(1-ethyl-3-methyl-1H-pyrazol-5-yl)-9H-pyrimido[4,5-b]indol-9-yl)but-2-en-1-yl)-2-(1-ethyl-3-methyl-1H-pyrazole-5-carboxamido)-1H-benzo[d]imidazol-7-yl)oxy)propyl 1-ethyl-3-methyl-1H-pyrazole-5-carboxylate] |
| ≤ 100 | < 200 | ≤ 50 | CCn1nc(C)cc1C(=O)Nc1nc2cc(C(N)=O)cc(O)c2n1C/C=C/Cn1c2nc(-c3cc(C)nn3CC)ncc2c2cc(C(N)=O)cc(OCCCOC)c21 [Example S28, (E)-9-(4-(5-carbamoyl-2-(1-ethyl-3-methyl-1H-pyrazole-5-carboxamido)-7-hydroxy-1H-benzo[d]imidazol-1-yl)but-2-en-1-yl)-2-(1-ethyl-3-methyl-1H-pyrazol-5-yl)-8-(3-methoxypropoxy)-9H-pyrimido[4,5-b]indole-6-carboxamide] |
| – | – | ≤ 50 | CCn1nc(C)cc1C(=O)Nc1nc2cc(C(N)=O)cc(OCCOCCOCCC(=O)O)c2n1C/C=C/Cn1c2nc(-c3cc(C)nn3CC)ncc2c2cc(C(N)=O)cc(OCCCOC)c21 [Example S49, (E)-3-(2-(2-((5-carbamoyl-1-(4-(6-carbamoyl-2-(1-ethyl-3-methyl-1H-pyrazol-5-yl)-8-(3-methoxypropoxy)-9H-pyrimido[4,5-b]indol-9-yl)but-2-en-1-yl)-2-(1-ethyl-3-methyl-1H-pyrazole-5-carboxamido)-1H-benzo[d]imidazol-7-yl)oxy)ethoxy)ethoxy)propanoic acid] |
